Experimental data as given in ChEMBL document CHEMBL5608235, “Tricyclic Benzo[1,3]oxazinyloxazolidinones as Potent Antibacterial Agents against Drug-Resistant Pathogens” (J Med Chem, 2024).
Converted amounts (≈) assume the structure as drawn. The source made the active and inactive calls. The calls are words filed in the database; no cut-off is given here.

How the values were obtained:
Enterococcus faecalis [1] = test: Antibacterial activity against Enterococcus faecalis ATCC29212 assessed as inhibition of bacterial growth incubated for 18 hrs by microdilution broth assay; format: functional
Staphylococcus aureus [2] = test: (§1) Antibacterial activity against methicillin resistant Staphylococcus aureus ATCC 33592 infected in cyclophosphamide-induced immunosuppressed Kunming mouse assessed as reduction in histopathological change in spleen at 50 mg/kg,po administration measured after 24 hrs by hematoxylin and eosin staining based microscopy; format: functional, organism-based
Staphylococcus aureus [3] = test: Inhibition of biofilm formation in methicillin resistant Staphylococcus aureus ATCC 33592 at 0.1 to 10 ug/ml incubated for 48 hrs by crystal violet staining based assay; format: functional, organism-based; details: dose 0.1-10 µg/ml
[4] = system: Mycobacterium tuberculosis; test: Antibacterial activity against Mycobacterium tuberculosis H37Rv assessed as inhibition of bacterial growth incubated for 7 days by alamar blue assay; format: functional; details: 168 h, time 7 day
Enterococcus = test: Antibacterial activity against vancomycin resistant Enterococcus clinical isolate 20-1 assessed as inhibition of bacterial growth incubated for 7 days by alamar blue assay; format: functional; details: clinical isolate 20-1, 168 h, time 7 day
Staphylococcus aureus [5] = test: Inhibition of protein synthesis in Staphylococcus aureus ATCC 29213 by translation assay; format: functional, organism-based
Staphylococcus aureus [6] = test: as §1, with “pigment deposition” for “histopathological change”; format: functional, organism-based
[7] = Cytotoxicity against African green monkey Vero cells incubated for 48 hrs by MTT assay; format: toxicity, cell-based, Chlorocebus sabaeus
Cell membrane [8] = test: Disruption of cell membrane in methicillin resistant Staphylococcus aureus ATCC 33592 assessed as cell surface perforation at 1 ug/ml incubated for 6 hrs by Scanning electron microscopic analysis; format: cell membranes; details: dose 1.0 µg/ml
Staphylococcus aureus [9] = test: Antibacterial activity against methicillin resistant Staphylococcus aureus clinical isolate 20-2 assessed as inhibition of bacterial growth incubated for 7 days by alamar blue assay; format: functional; details: clinical isolate 20-2, 168 h, time 7 day
Staphylococcus aureus [10] = test: as §1, with “inflammatory cell infiltration” for “histopathological change”, “liver” for “spleen”; format: functional, organism-based
[11] = system: Staphylococcus epidermidis; test: Antibacterial activity against Staphylococcus epidermidis ATCC12228 assessed as inhibition of bacterial growth incubated for 18 hrs by microdilution broth assay; format: functional
Staphylococcus aureus [12] = test: Antibacterial activity against Linezolid resistant Staphylococcus aureus clinical isolate 20-2 assessed as inhibition of bacterial growth incubated for 7 days by alamar blue assay; format: functional; details: clinical isolate 20-2, 168 h, time 7 day
Staphylococcus aureus [13] = test: Antibacterial activity against methicillin resistant Staphylococcus aureus clinical isolate 20-1 assessed as inhibition of bacterial growth incubated for 7 days by alamar blue assay; format: functional; details: clinical isolate 20-1, 168 h, time 7 day
[14] = system: Staphylococcus epidermidis; test: Antibacterial activity against methicillin resistant Staphylococcus epidermidis clinical isolate 20-2 assessed as inhibition of bacterial growth incubated for 7 days by alamar blue assay; format: functional; details: clinical isolate 20-2, 168 h, time 7 day
Staphylococcus aureus [15] = test: as §1, with “heart” for “spleen”; format: functional, organism-based
[16] = Free AUC in BALB/c mouse at 10 mg/kg,po administration measured upto 24 hrs by LC-MS/MS analysis; format: ADME, organism-based; details: in vivo
Bacillus subtilis = test: Antibacterial activity against Bacillus subtilis ATCC6633 assessed as inhibition of bacterial growth incubated for 18 hrs by microdilution broth assay; format: functional
Staphylococcus aureus [17] = test: Antibacterial activity against methicillin resistant Staphylococcus aureus ATCC 33592 infected in cyclophosphamide-induced immunosuppressed Kunming mouse assessed as increase in body weight at 50 mg/kg,po administration measured for 7 days; format: functional, organism-based; details: time 7.0 day
Staphylococcus aureus [18] = test: as §1, with “inflammatory cell infiltration” for “histopathological change”, “kidney” for “spleen”; format: functional, organism-based
Cell membrane [19] = test: Disruption of cell membrane in methicillin resistant Staphylococcus aureus ATCC 33592 assessed as cell shrinkage at 1 ug/ml incubated for 6 hrs by Scanning electron microscopic analysis; format: cell membranes; details: dose 1.0 µg/ml
[20] = system: Staphylococcus epidermidis; test: Antibacterial activity against methicillin resistant Staphylococcus epidermidis clinical isolate 20-1 assessed as inhibition of bacterial growth incubated for 7 days by alamar blue assay; format: functional; details: clinical isolate 20-1, 168 h, time 7 day
Staphylococcus aureus [21] = test: Antibacterial activity against vancomycin intermediate Staphylococcus aureus ATCC700699 assessed as inhibition of bacterial growth incubated for 7 days by alamar blue assay; format: functional; details: ATCC700699, 168 h, time 7 day
Staphylococcus aureus [22] = test: Inhibition of biofilm formation in Staphylococcus aureus ATCC 29213 at 10 ug/ml incubated for 48 hrs by crystal violet staining based assay; format: functional, organism-based; details: dose 10.0 µg/ml
Staphylococcus aureus [23] = test: Antibacterial activity against Linezolid resistant Staphylococcus aureus assessed as inhibition of bacterial growth incubated for 7 days by alamar blue assay; format: functional; details: 168 h, time 7 day
Staphylococcus aureus [24] = test: Antibacterial activity against Linezolid resistant Staphylococcus aureus clinical isolate 20-1 assessed as inhibition of bacterial growth incubated for 7 days by alamar blue assay; format: functional; details: clinical isolate 20-1, 168 h, time 7 day
Staphylococcus aureus [25] = test: as §1, with “congestion” for “histopathological change”; format: functional, organism-based
[26] = AUC (0 to infinity) in BALB/c mouse at 10 mg/kg,po administration measured upto 24 hrs by LC-MS/MS analysis; format: ADME, organism-based; details: in vivo, po, 10 mg/kg, 24 h
[27] = AUC (0 to t) in BALB/c mouse at 1 mg/kg,iv administration measured upto 24 hrs by LC-MS/MS analysis; format: ADME, organism-based; details: in vivo
[28] = Metabolic stability in ICR mouse liver microsomes assessed as substrate remaining at 10 uM incubated for 60 mins in presence of NADPH by LC-MS/MS analysis; format: ADME, Microsome; details: read-out: Stability
[29] = Volume of distribution in BALB/c mouse at 1 mg/kg,iv administration measured upto 24 hrs by LC-MS/MS analysis; format: ADME, organism-based; details: in vivo
[30] = AUC (0 to infinity) in BALB/c mouse at 1 mg/kg,iv administration measured upto 24 hrs by LC-MS/MS analysis; format: ADME, organism-based; details: in vivo, iv, 1 mg/kg, 24 h
[31] = Cmax in BALB/c mouse at 10 mg/kg,po administration measured upto 24 hrs by LC-MS/MS analysis; format: ADME, organism-based; details: in vivo
[32] = MRT (0 to t) in BALB/c mouse at 10 mg/kg,po administration measured upto 24 hrs by LC-MS/MS analysis; format: ADME, organism-based; details: in vivo
[33] = Clearance in BALB/c mouse at 1 mg/kg,iv administration measured upto 24 hrs by LC-MS/MS analysis; format: ADME, organism-based; details: in vivo
[34] = Drug concentration in BALB/c mouse plasma at 10 mg/kg,po administration measured within 15 mins by LC-MS/MS analysis; format: ADME, organism-based
[35] = Metabolic stability in ICR mouse liver microsomes assessed as compound remaining at 10 uM incubated for 60 mins in absence of NADPH by LC-MS/MS analysis; format: ADME, Microsome; details: read-out: Stability
[36] = MRT (0 to t) in BALB/c mouse at 1 mg/kg,iv administration measured upto 24 hrs by LC-MS/MS analysis; format: ADME, organism-based; details: in vivo
[37] = Plasma protein binding in BALB/c mouse at 1 mg/kg,iv administration measured upto 24 hrs by LC-MS/MS analysis; format: ADME, organism-based; details: read-out: PPB (converted)
[38] = Drug concentration in BALB/c mouse plasma at 10 mg/kg,po administration measured after 24 hrs by LC-MS/MS analysis; format: ADME, organism-based; details: in vivo
[39] = Cmax in BALB/c mouse at 1 mg/kg,iv administration measured upto 24 hrs by LC-MS/MS analysis; format: ADME, organism-based; details: in vivo
[40] = Metabolic stability in human liver microsomes assessed as compound remaining at 10 uM incubated for 60 mins in absence of NADPH by LC-MS/MS analysis; format: ADME, Microsome; details: read-out: Stability
[41] = Metabolic stability in human liver microsomes assessed as substrate remaining at 10 uM incubated for 60 mins in presence of NADPH by LC-MS/MS analysis; format: ADME, Microsome; details: read-out: Stability
[42] = MRT (0 to infinity) in BALB/c mouse at 1 mg/kg,iv administration measured upto 24 hrs by LC-MS/MS analysis; format: ADME, organism-based; details: in vivo
[43] = Terminal half life in BALB/c mouse at 10 mg/kg,po administration measured upto 24 hrs by LC-MS/MS analysis; format: ADME, organism-based; details: in vivo, read-out: beta t1/2 (converted)
[44] = Oral bioavailability in BALB/c mouse at 10 mg/kg administration measured upto 24 hrs by LC-MS/MS analysis; format: ADME, organism-based; details: in vivo, po, 10 mg/kg, 24 h
Enterococcus faecalis [45] = test: Antibacterial activity against Linezolid resistant Enterococcus faecalis clinical isolate 20-1 assessed as inhibition of bacterial growth incubated for 7 days by alamar blue assay; format: functional; details: clinical isolate 20-1, 168 h, time 7 day
[46] = AUC (0 to t) in BALB/c mouse at 10 mg/kg,po administration measured upto 24 hrs by LC-MS/MS analysis; format: ADME, organism-based; details: in vivo
Enterococcus faecalis [47] = test: Antibacterial activity against Linezolid resistant Enterococcus faecalis clinical isolate 20-2 assessed as inhibition of bacterial growth incubated for 7 days by alamar blue assay; format: functional; details: clinical isolate 20-2, 168 h, time 7 day
[48] = MRT (0 to infinity) in BALB/c mouse at 10 mg/kg,po administration measured upto 24 hrs by LC-MS/MS analysis; format: ADME, organism-based; details: in vivo
Staphylococcus aureus [49] = test: Antibacterial activity against Staphylococcus aureus ATCC25923 assessed as inhibition of bacterial growth incubated for 18 hrs by microdilution broth assay; format: functional
[50] = Tmax in BALB/c mouse at 10 mg/kg,po administration measured upto 24 hrs by LC-MS/MS analysis; format: ADME, organism-based; details: in vivo
[51] = Terminal half life in BALB/c mouse at 1 mg/kg,iv administration measured upto 24 hrs by LC-MS/MS analysis; format: ADME, organism-based; details: in vivo, read-out: beta t1/2 (converted)

CC(=O)NC[C@H]1CN(c2ccc(N3CCOCC3)c(F)c2)C(=O)O1 [LINEZOLID]
MIC (Enterococcus faecalis [1]): 0.5 µg/mL (≈ 1.48 µM)
Activity (Staphylococcus aureus [2]): Active
inhibition (Staphylococcus aureus [3]): Active
MIC [4]: 0.8 µg/mL (≈ 2.37 µM)
MIC (Enterococcus): 2 µg/mL (≈ 5.93 µM)
IC50 (Staphylococcus aureus [5]): 1.1 µg/mL (≈ 3.26 µM)
Activity (Staphylococcus aureus [6]): Active
IC50 at 48 h [7]: > 64 µg/mL
Activity (Cell membrane [8]): Active
MIC (Staphylococcus aureus [9]): 1 µg/mL (≈ 2.96 µM)
Activity (Staphylococcus aureus [10]): Active
MIC [11]: 2 µg/mL (≈ 5.93 µM)
MIC (Staphylococcus aureus [12]): 8 µg/mL (≈ 23.7 µM)
MIC (Staphylococcus aureus [13]): 1 µg/mL (≈ 2.96 µM)
MIC [14]: 0.5 µg/mL (≈ 1.48 µM)
Activity (Staphylococcus aureus [15]): Active
fAUC [16]: 5.26 µg·h/mL
MIC (Bacillus subtilis): > 64 µg/mL
Activity (Staphylococcus aureus [17]): Active
Activity (Staphylococcus aureus [18]): Active
Activity (Cell membrane [19]): Active
MIC [20]: 0.5 µg/mL (≈ 1.48 µM)
MIC (Staphylococcus aureus [21]): 1 µg/mL (≈ 2.96 µM)
inhibition (Staphylococcus aureus [22]): Active
MIC (Staphylococcus aureus [23]): 8 µg/mL (≈ 23.7 µM)
MIC (Staphylococcus aureus [24]): 8 µg/mL (≈ 23.7 µM)
Activity (Staphylococcus aureus [25]): Active

COC(=O)NC[C@@H]1OC(=O)N2Cc3cc(-c4ccc(C#N)cc4)c(F)cc3O[C@@H]12
MIC (Enterococcus faecalis [1]): 0.25 µg/mL (≈ 0.629 µM)
AUC [26]: 188.361 µg·h/mL
AUC(0-t) at 24 h [27]: 6810 ng·h/mL
remaining at 1 h, 10 µM [28]: 114%
MIC [4]: 0.73 µg/mL (≈ 1.84 µM)
MIC (Enterococcus): 0.5 µg/mL (≈ 1.26 µM)
Vd [29]: 0.818 L/kg
AUC [30]: 6893 ng·h/mL
Cmax [31]: 2790 ng/mL
IC50 at 48 h [7]: > 64 µg/mL
MRT last at 24 h [32]: 11.3 h
clearance [33]: 2.42 mL/min/kg
concentration at 0.25 h [34]: 1000 ng/mL
MIC (Staphylococcus aureus [9]): 0.5 µg/mL (≈ 1.26 µM)
remaining at 1 h, 10 µM [35]: 112%
MIC [11]: 0.032 µg/mL (≈ 0.0805 µM)
MRT last at 24 h [36]: 8.1 h
fraction unbound at 24 h [37]: 0.174
Drug uptake [38]: > 60%
MIC (Staphylococcus aureus [12]): 8 µg/mL (≈ 20.1 µM)
Cmax [39]: 514 ng/mL
remaining at 1 h, 10 µM [40]: 108%
MIC (Staphylococcus aureus [13]): 0.5 µg/mL (≈ 1.26 µM)
remaining at 1 h, 10 µM [41]: 113%
MIC [14]: 0.125 µg/mL (≈ 0.315 µM)
MRT inf [42]: 8.4 h
half-life [43]: 2960 min
fAUC [16]: 9.45 µg·h/mL
MIC (Bacillus subtilis): 0.063 µg/mL (≈ 0.159 µM)
F [44]: 79.8%
MIC (Enterococcus faecalis [45]): 2 µg/mL (≈ 5.03 µM)
AUC(0-t) at 24 h [46]: 54300 ng·h/mL
MIC (Enterococcus faecalis [47]): 2 µg/mL (≈ 5.03 µM)
MRT inf [48]: 70.9 h
MIC (Staphylococcus aureus [49]): 2 µg/mL (≈ 5.03 µM)
Tmax [50]: 4 h
MIC [20]: 0.125 µg/mL (≈ 0.315 µM)
MIC (Staphylococcus aureus [21]): 0.5 µg/mL (≈ 1.26 µM)
half-life [51]: 234 min
MIC (Staphylococcus aureus [24]): 8 µg/mL (≈ 20.1 µM)
